The results in this text go back to ChEMBL document CHEMBL3808279, “Sequential one-pot synthesis of bis(indolyl)glyoxylamides: Evaluation of antibacterial and anticancer activities” (Bioorg Med Chem Lett, 2016).

SMILES strings stand for the structures. In brackets after ≈: the same amount, converted by molar mass. Activity calls are given as the source filed them. The calls are words filed in the database; no cut-off is given here.

Series [1] deals with Escherichia coli. The experiment in a line: Antibacterial activity against Escherichia coli after 18 to 24 hrs by microbroth dilution method. The format is functional. The following applies: for MIC: Escherichia coli.
In series [2] the test system is Pseudomonas putida. The experiment in a line: Antibacterial activity against Pseudomonas putida after 18 to 24 hrs by microbroth dilution method. The note with it: for MIC: Pseudomonas putida. It counts as functional.
Series [3] relates to Klebsiella pneumoniae. The experiment in a line: Antibacterial activity against Klebsiella pneumoniae after 18 to 24 hrs by microbroth dilution method. The format is functional. The note with it: for MIC: Klebsiella pneumoniae.
Series [4] deals with Bacillus subtilis. As to the kind of experiment: Antibacterial activity against Bacillus subtilis after 18 to 24 hrs by microbroth dilution method. The following applies: for MIC: Bacillus subtilis. It counts as functional.
The test system of series [5] is Staphylococcus aureus. The experiment in a line: Antibacterial activity against Staphylococcus aureus after 18 to 24 hrs by microbroth dilution method. It counts as functional. The note with it: for MIC: Staphylococcus aureus.
The test system of series [6] is MDA-MB-231. The experiment in a line: Cytotoxicity against human MDA-MB-231 cells after 48 hrs by MTT assay. The note with it: MDA-MB-231, 48 h. It counts as functional, cell-based.
Series [7] in a line: Cytotoxicity against human PC3 cells after 48 hrs by MTT assay. It counts as functional, cell-based. The following applies: PC-3, 48 h.
Series [8] concerns HeLa. The experiment in a line: Cytotoxicity against human HeLa cells after 48 hrs by MTT assay. The format is functional, cell-based.
A short description of series [9]: Cytotoxicity against human C4-2 cells after 48 hrs by MTT assay. The format is functional, cell-based. The following applies: LNCaP C4-2, 48 h.
Series [10] can be described thus: Cytotoxicity against human HEK293T cells after 48 hrs by MTT assay. The format is cell-based. The following applies: HEK-293T.
A short description of series [11]: Cytotoxicity against human BxPC3 cells after 48 hrs by MTT assay. The format is functional, cell-based. The following applies: BXPC-3, 48 h.
Series [12] has as its system PC-3. The experiment in a line: Induction of apoptosis in human PC3 cells assessed as increase in cleaved PARP1 level after 48 hrs by immunoblot analysis. The format is functional, cell-based.
In series [13] the test system is Escherichia coli. As to the kind of experiment: Bactericidal activity against Escherichia coli at 3 times MIC after 2 hrs by time-kill analysis. It counts as functional.
The subject of series [14] is Pseudomonas putida. As to the kind of experiment: Bactericidal activity against Pseudomonas putida at 3 times MIC after 2 hrs by time-kill analysis. It counts as functional.
Series [15] has as its system Bacillus subtilis. As to the kind of experiment: Bactericidal activity against Bacillus subtilis at 3 times MIC after 2 hrs by time-kill analysis. It counts as functional.
Series [16] deals with Staphylococcus aureus. The experiment in a line: Bactericidal activity against Staphylococcus aureus at 3 times MIC after 2 hrs by time-kill analysis. The format is functional.
A short description of series [17]: Stability of compound at pH 4.5 up to 48 hrs by HPLC analysis. It counts as physicochemical. The following applies: buffer, pH 4.5, 48 h.
Series [18] is described as follows: Stability of compound at pH 7.4 up to 48 hrs by HPLC analysis. It counts as physicochemical. The following applies: buffer, pH 7.4, 48 h.
Series [19] has as its system Escherichia coli. As to the kind of experiment: Bactericidal activity against Escherichia coli assessed as maximum bactericidal reduction at 3 times MIC after 3 hrs by time-kill analysis. The format is functional, organism-based.
For series [20], the system named is Pseudomonas putida. The experiment in a line: Bactericidal activity against Pseudomonas putida assessed as maximum bactericidal reduction at 3 times MIC after 3 hrs by time-kill analysis. The format is functional, organism-based.
The test system of series [21] is Micrococcus luteus. The experiment in a line: Antimicrobial activity against Sarcina lutea. It counts as functional.
Series [22] has as its system Corynebacterium xerosis. As to the kind of experiment: Antimicrobial activity against Corynebacterium xerosis. It counts as functional.
The test system of series [23] is Escherichia coli. As to the kind of experiment: Antimicrobial activity against Escherichia coli. It counts as functional.
Series [24] deals with Bacillus subtilis. As to the kind of experiment: Antimicrobial activity against Bacillus subtilis. The format is functional.
Series [25] concerns Pseudomonas aeruginosa. As to the kind of experiment: Antimicrobial activity against Pseudomonas aeruginosa. The format is functional.
Series [26] concerns P388. The experiment in a line: Cytotoxicity against mouse P388 cells. It counts as functional, cell-based.
The test system of series [27] is A549. The experiment in a line: Cytotoxicity against human A549 cells. The format is functional, cell-based.
Series [28] deals with Cyclin-dependent kinase 4 (Homo sapiens, UniProt P11802). The experiment in a line: Inhibition of CDK4 (unknown origin).
Cyclin-dependent kinase 4, sequence (P11802 whole entry): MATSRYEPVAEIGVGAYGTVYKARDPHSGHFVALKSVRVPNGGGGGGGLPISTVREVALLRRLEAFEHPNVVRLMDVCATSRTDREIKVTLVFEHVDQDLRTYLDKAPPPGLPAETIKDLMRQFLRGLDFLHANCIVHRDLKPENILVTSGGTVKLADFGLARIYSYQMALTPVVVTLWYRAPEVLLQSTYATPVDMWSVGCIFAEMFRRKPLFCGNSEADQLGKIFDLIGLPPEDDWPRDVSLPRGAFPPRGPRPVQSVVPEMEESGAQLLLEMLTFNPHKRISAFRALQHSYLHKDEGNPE
The target of series [29] is Receptor tyrosine-protein kinase erbB-2 (Homo sapiens, UniProt P04626). As to the kind of experiment: Inhibition of c-erbB2 (unknown origin).
Receptor tyrosine-protein kinase erbB-2, sequence (P04626 whole entry): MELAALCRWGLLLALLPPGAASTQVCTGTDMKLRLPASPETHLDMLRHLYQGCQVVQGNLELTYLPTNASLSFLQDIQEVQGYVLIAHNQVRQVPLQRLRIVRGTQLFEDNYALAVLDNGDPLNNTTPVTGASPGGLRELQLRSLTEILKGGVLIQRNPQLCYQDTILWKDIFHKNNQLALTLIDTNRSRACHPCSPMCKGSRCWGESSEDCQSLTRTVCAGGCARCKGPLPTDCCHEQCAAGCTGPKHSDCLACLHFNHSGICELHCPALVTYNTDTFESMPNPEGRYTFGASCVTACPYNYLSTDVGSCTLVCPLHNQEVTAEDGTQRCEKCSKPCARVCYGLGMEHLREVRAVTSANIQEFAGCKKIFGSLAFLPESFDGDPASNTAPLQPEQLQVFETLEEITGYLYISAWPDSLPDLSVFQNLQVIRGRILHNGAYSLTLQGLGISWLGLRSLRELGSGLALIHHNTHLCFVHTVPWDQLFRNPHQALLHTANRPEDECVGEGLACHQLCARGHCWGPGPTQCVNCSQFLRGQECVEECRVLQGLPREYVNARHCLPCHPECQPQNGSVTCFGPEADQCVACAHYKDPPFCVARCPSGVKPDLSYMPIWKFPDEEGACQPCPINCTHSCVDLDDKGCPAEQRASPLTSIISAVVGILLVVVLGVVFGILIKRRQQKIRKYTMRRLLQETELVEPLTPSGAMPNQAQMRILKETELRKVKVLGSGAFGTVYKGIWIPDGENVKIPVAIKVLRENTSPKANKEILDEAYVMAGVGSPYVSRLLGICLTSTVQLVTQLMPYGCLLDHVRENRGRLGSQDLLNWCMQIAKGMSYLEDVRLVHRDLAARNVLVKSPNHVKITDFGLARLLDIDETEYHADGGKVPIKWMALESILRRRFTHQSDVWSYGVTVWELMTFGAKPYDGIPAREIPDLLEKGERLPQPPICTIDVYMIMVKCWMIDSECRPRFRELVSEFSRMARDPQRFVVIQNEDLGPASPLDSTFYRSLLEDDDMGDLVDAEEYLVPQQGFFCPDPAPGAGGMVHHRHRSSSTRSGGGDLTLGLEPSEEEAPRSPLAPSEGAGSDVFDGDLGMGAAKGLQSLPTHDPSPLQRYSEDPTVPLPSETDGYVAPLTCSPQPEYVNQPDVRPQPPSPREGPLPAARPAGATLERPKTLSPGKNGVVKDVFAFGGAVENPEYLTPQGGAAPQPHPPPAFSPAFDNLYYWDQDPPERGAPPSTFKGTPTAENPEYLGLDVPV
The nature of series [30]: Aqueous solubility of compound after 12 hrs by shake-flask method. The format is physicochemical. The note with it: water.

For `O=C(NCCc1c[nH]c2ccccc12)C(=O)c1c[nH]c2ccccc12`, the “inhibition zone (IZ)” value worked out at 15 mm in [1]; 14 mm in series [2]; 14 mm in series [3]; 15 mm in series [4]; 15 mm in series [5]. Also, the minimal inhibitory concentration (MIC) was found to be 50 µg/mL (≈ 151 µM) in [1]; 50 µg/mL (≈ 151 µM) in series [2]; 100 µg/mL (≈ 302 µM) in series [3]; 50 µg/mL (≈ 151 µM) in [4]; 50 µg/mL (≈ 151 µM) in series [5]. Besides, the IC50 amounted to 48.7 µM in series [6]; 38.5 µM in series [7]; 48.9 µM in series [8]; 71.5 µM in [9]; 97.7 µM in series [10]; 64 µM in series [11]. Further, the result in series [12] was Active.

Consider `Cn1cc(C(=O)C(=O)NCCc2c[nH]c3ccccc23)c2ccccc21`, for which the “inhibition zone (IZ)” value in series [1] amounted to 18 mm; in [2], 17 mm; in series [3], 17 mm; in series [4], 18 mm; in [5], 16 mm. The MIC is 12.5 µg/mL (≈ 36.2 µM) in series [1]; over 25 µg/mL in [2]; 25 µg/mL (≈ 72.4 µM) in [3]; over 25 µg/mL in [4]; 50 µg/mL (≈ 145 µM) in series [5]. The Activity in series [13] is listed as 80%; in series [14], 80%; in [15] it was over 80%; in series [16], over 65%. The IC50 in [6], in series [7], in series [8], in series [9], in [10] and in [11] was over 100 µM in each case. Also, the Stability entry in series [17] and in series [18] was “Stable” in each case. The result in [19] and in series [20] was Active.

For the compound `O=C1N=C(C(=O)c2c[nH]c3ccc(Br)cc23)N/C1=C\c1c[nH]c2ccccc12`, the MIC in series [21] and in series [22] was 16 µg/mL (≈ 36.9 µM) each time.

Take `O=C(NCCc1c[nH]c2ccccc12)C(=O)c1cn(Cc2ccc(Cl)cc2)c2ccccc12`: the “inhibition zone (IZ)” value in [1] is 18 mm; in [2], 18 mm; in [3], 18 mm; in [4], 17 mm; in [5], 17 mm. Also, the MIC in series [1] is 12.5 µg/mL (≈ 27.4 µM); in series [2] it was 12.5 µg/mL (≈ 27.4 µM); in series [3], over 12.5 µg/mL; in series [4] it was over 25 µg/mL; in series [5], over 25 µg/mL. In addition, the Activity was 80% in [13], 80% in series [14], over 80% in series [15] and over 65% in [16]. Also, the half-maximal inhibitory concentration (IC50) in series [6], in series [7], in [8], in series [9], in [10] and in series [11] was over 100 µM throughout. Moreover, the Stability result in [17] and in series [18] was “Stable” each time. In addition, the outcome in series [19] and in series [20] was Active.

In the case of `CC(c1c[nH]c(N)n1)c1ccc(O)c2[nH]cc(-c3cnc(-c4c[nH]c5cc(Br)ccc45)c(O)n3)c12.O=C(O)C(F)(F)F` (configuration not stated) [DRAGMACIDINS], the results for the minimum inhibitory concentration (MIC) in series [23], in series [24] and in series [25] were 15.6 µg/mL, 3.1 µg/mL and 62.5 µg/mL, respectively. In addition, the figures for the concentration for half-maximal inhibition (IC50) in series [26] and in [27] were 1.4 µg/mL and 4.5 µg/mL, respectively.

Take `O=C1N=C(C(=O)c2c[nH]c3ccccc23)N/C1=C\c1c[nH]c2cc(O)ccc12`: the IC50 in [28] was 33.8 µM; in series [29] it was 20 µM.

`O=C(NCCc1c[nH]c2ccccc12)C(=O)c1c[nH]c2cc(F)ccc12`: the “inhibition zone (IZ)” value was found to be 15 mm in series [1], 14 mm in series [2] and 14 mm in [3]. For the same compound, the MIC in series [1] was 100 µg/mL (≈ 286 µM); in series [2], over 100 µg/mL; in series [3] it was over 50 µg/mL. Also, the 50% inhibitory concentration (IC50) is 21.1 µM in [6]; 24.1 µM in series [7]; 22.3 µM in [8]; 46 µM in [9]; 69.8 µM in series [10]; 29.9 µM in series [11]. In addition, in series [12], the outcome was Active.

As for `O=C(NCCc1c[nH]c2ccccc12)C(=O)c1c[nH]c2ccc(F)cc12`, the “inhibition zone (IZ)” value in series [1] is given as 20 mm; in series [2], 18 mm; in series [3] it was 18 mm; in [4] it was 18 mm; in series [5], 17 mm. Moreover, the MIC was 12.5 µg/mL (≈ 35.8 µM) in series [1]; 12.5 µg/mL (≈ 35.8 µM) in series [2]; 12.5 µg/mL (≈ 35.8 µM) in series [3]; over 12.5 µg/mL in series [4]; 25 µg/mL (≈ 71.6 µM) in series [5]. Further, the Activity in [13] was 80%; in series [14], 80%; in [15], over 80%; in series [16], over 65%. The IC50 in series [6], in series [7], in series [8], in series [9], in [10] and in series [11] was over 100 µM in each case. The Stability entry in [17] and in [18] was “Stable” each time. Besides, the solubility (thermodynamic) at 12 h in series [30] is 0.3 µg/mL (≈ 0.859 µM). Also, the outcome in series [19] and in series [20] was Active.
